The values below come from patent US20130123460A1, “PEPTIDE FOR IMPROVING BIOSTABILITY OF BIOACTIVE SUBSTANCE, AND BIOACTIVE SUBSTANCE HAVING IMPROVED BIOSTABILITY” (priority 2010, published 2013).

Where two headings read alike, the source gives them in different places. Where no end group is shown, it is not given here.

The nature of series [1]: Plasma stability of GLP-1 peptide complex (remaining rate in rat plasma, HPLC/MS). The series is classed as in vitro ADME, SD rats. The conditions noted are these: for remaining at 8 h, 0.5 μmol/L / remaining at 48 h, 0.5 μmol/L: SD.
Excerpt: SD rats were anesthetized with diethyl ether, whole blood was collected and a plasma fraction was separated therefrom.
Series [2] has as its target T1, endogenous GLP-1 receptor (Mus musculus, UniProt O35659).
T1 construct: expressing an endogenous GLP-1 receptor; endogenous in cells; host or cells: MIN 6 mouse insulinoma cells (obtained from a person)
T1 sequence (O35659 22-463): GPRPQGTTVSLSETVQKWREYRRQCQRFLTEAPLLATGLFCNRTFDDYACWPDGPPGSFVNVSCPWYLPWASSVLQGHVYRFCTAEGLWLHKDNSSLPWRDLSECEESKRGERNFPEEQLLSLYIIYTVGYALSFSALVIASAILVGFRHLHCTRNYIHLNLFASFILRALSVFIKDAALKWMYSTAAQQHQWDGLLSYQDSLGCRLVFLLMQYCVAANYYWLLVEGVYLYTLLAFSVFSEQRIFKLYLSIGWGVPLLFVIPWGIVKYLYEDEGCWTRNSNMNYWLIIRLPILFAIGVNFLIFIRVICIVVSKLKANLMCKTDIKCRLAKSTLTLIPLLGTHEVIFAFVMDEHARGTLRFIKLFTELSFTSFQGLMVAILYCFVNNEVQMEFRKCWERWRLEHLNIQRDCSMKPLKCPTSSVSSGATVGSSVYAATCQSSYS
As to the kind of experiment: Insulin secretion capacity of GLP-1 peptide complex in MIN 6 cells.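 For all read-outs here: insulin released into the supernatant of MIN 6 cultures quantified by ELISA, absorbance read at 450 nm with 620 nm reference after substrate addition.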 In kind it is cell-based. The conditions noted are these: for Insulin secretion capacity (% of control): MIN 6 cells, 1000 pM, 15 mM glucose, control = native GLP-1 at 1000 pM.
Description: MIN 6 was seeded on a multi-plate, which was cultivated at 37° C. for 48 hours. After that, the culture was washed twice with a KRH buffer solution including 2 mM glucose solution (including NaCl 119 mM, KCl 4.74 mM, CaCl2 2.54 mM, MgCl2 1.19 mM, KH2PO4 1.19 mM, 10 mM HEPES buffer solution pH7.3, and 0.1% BSA), and then it was incubated at 37° C. for one hour. […] A supernatant thereof was recovered, and an amount of insulin secreted was measured. The measurement of the insulin was performed in an enzyme-linked immunosorbent assay (ELISA), and an absorbance was measured at 450 nm (a sub-wavelength: 620 nm) after the addition of a substrate.
EC50 values thereof were calculated in the same manner as in Part 2, and the influence on the bioactivity caused by the addition of the partial peptide of the GA module were inspected in detail.
The analysis was performed using the following calculation formula.

For the compound `CC[C@H](C)[C@H](NC(=O)[C@H](Cc1ccccc1)NC(=O)[C@H](CCC(=O)O)NC(=O)[C@H](CCCCN)NC(=O)[C@H](C)NC(=O)[C@H](C)NC(=O)[C@H](CCC(N)=O)NC(=O)CNC(=O)[C@H](CCC(=O)O)NC(=O)[C@H](CC(C)C)NC(=O)[C@H](Cc1ccc(O)cc1)NC(=O)[C@H](CO)NC(=O)[C@H](CO)NC(=O)[C@@H](NC(=O)[C@H](CC(=O)O)NC(=O)[C@H](CO)NC(=O)[C@@H](NC(=O)[C@H](Cc1ccccc1)NC(=O)[C@@H](NC(=O)CNC(=O)[C@H](CCC(=O)O)NC(=O)[C@H](CO)NC(=O)[C@@H](N)Cc1c[nH]cn1)[C@@H](C)O)[C@@H](C)O)C(C)C)C(=O)N[C@@H](C)C(=O)N[C@@H](Cc1c[nH]c2ccccc12)C(=O)N[C@@H](CC(C)C)C(=O)N[C@H](C(=O)N[C@@H](CCCCN)C(=O)NCC(=O)N[C@@H](CC(=O)O)C(=O)N[C@@H](CCC(=O)O)C(=O)N[C@H](C(=O)N[C@@H](CC(C)C)C(=O)N[C@@H](C)C(=O)N[C@@H](C)C(N)=O)[C@@H](C)CC)C(C)C` [Comparative Example 9, [Ser8]-GLP-1(7-35)-GAm(39-44)-NH2, reference compound], in series [1] (rat, plasma), the share remaining (as a rule, the share of the starting amount still present when the sample was taken) at 8 h, 0.5 μmol/L stood at 63% and the fraction remaining at 48 h, 0.5 μmol/L worked out at 0%.

In series [1] (rat, plasma), `CC[C@H](C)[C@H](NC(=O)[C@H](CCC(=O)O)NC(=O)[C@H](CC(=O)O)NC(=O)[C@@H](NC(=O)CNC(=O)[C@H](CCCCN)NC(=O)[C@@H](NC(=O)[C@H](CC(C)C)NC(=O)[C@H](Cc1c[nH]c2ccccc12)NC(=O)[C@H](C)NC(=O)[C@@H](NC(=O)[C@H](Cc1ccccc1)NC(=O)[C@H](CCC(=O)O)NC(=O)[C@H](CCCCN)NC(=O)[C@H](C)NC(=O)[C@H](C)NC(=O)[C@H](CCC(N)=O)NC(=O)CNC(=O)[C@H](CCC(=O)O)NC(=O)[C@H](CC(C)C)NC(=O)[C@H](Cc1ccc(O)cc1)NC(=O)[C@H](CO)NC(=O)[C@H](CO)NC(=O)[C@@H](NC(=O)[C@H](CC(=O)O)NC(=O)[C@H](CO)NC(=O)[C@@H](NC(=O)[C@H](Cc1ccccc1)NC(=O)[C@@H](NC(=O)CNC(=O)[C@H](CCC(=O)O)NC(=O)[C@H](C)NC(=O)[C@@H](N)Cc1c[nH]cn1)[C@@H](C)O)[C@@H](C)O)C(C)C)[C@@H](C)CC)C(C)C)[C@@H](C)CC)C(N)=O` [Comparative Example 10, GLP-1(7-35)-GAm(38-41)-NH2, reference compound] gave a fraction remaining at 8 h, 0.5 μmol/L of 35% and a share remaining at 48 h, 0.5 μmol/L of 0%. On the same counts, the results for `CC[C@H](C)[C@H](NC(=O)CNC(=O)[C@H](CCCCN)NC(=O)[C@@H](NC(=O)[C@H](CC(C)C)NC(=O)[C@H](Cc1c[nH]c2ccccc12)NC(=O)[C@H](C)NC(=O)[C@@H](NC(=O)[C@H](Cc1ccccc1)NC(=O)[C@H](CCC(=O)O)NC(=O)[C@H](CCCCN)NC(=O)[C@H](C)NC(=O)[C@H](C)NC(=O)[C@H](CCC(N)=O)NC(=O)CNC(=O)[C@H](CCC(=O)O)NC(=O)[C@H](CC(C)C)NC(=O)[C@H](Cc1ccc(O)cc1)NC(=O)[C@H](CO)NC(=O)[C@H](CO)NC(=O)[C@@H](NC(=O)[C@H](CC(=O)O)NC(=O)[C@H](CO)NC(=O)[C@@H](NC(=O)[C@H](Cc1ccccc1)NC(=O)[C@@H](NC(=O)CNC(=O)[C@H](CCC(=O)O)NC(=O)[C@H](C)NC(=O)[C@@H](N)Cc1c[nH]cn1)[C@@H](C)O)[C@@H](C)O)C(C)C)[C@@H](C)CC)C(C)C)C(=O)N[C@@H](CC(=O)O)C(=O)N[C@@H](CCC(=O)O)C(N)=O` [Comparative Example 11, GLP-1(7-35)-GAm(38-40)-NH2, reference compound] are 0% and 0%. Regarding `CC[C@H](C)[C@H](NC(=O)[C@H](Cc1ccccc1)NC(=O)[C@H](CCC(=O)O)NC(=O)[C@H](CCCCN)NC(=O)[C@H](C)NC(=O)[C@H](C)NC(=O)[C@H](CCC(N)=O)NC(=O)CNC(=O)[C@H](CCC(=O)O)NC(=O)[C@H](CC(C)C)NC(=O)[C@H](Cc1ccc(O)cc1)NC(=O)[C@H](CO)NC(=O)[C@H](CO)NC(=O)[C@@H](NC(=O)[C@H](CC(=O)O)NC(=O)[C@H](CO)NC(=O)[C@@H](NC(=O)[C@H](Cc1ccccc1)NC(=O)[C@@H](NC(=O)CNC(=O)[C@H](CCC(=O)O)NC(=O)CNC(=O)[C@@H](N)Cc1c[nH]cn1)[C@@H](C)O)[C@@H](C)O)C(C)C)C(=O)N[C@@H](C)C(=O)N[C@@H](Cc1c[nH]c2ccccc12)C(=O)N[C@@H](CC(C)C)C(=O)N[C@H](C(=O)N[C@@H](CCCCN)C(=O)NCC(=O)N[C@@H](CCCNC(=N)N)C(=O)N1CCC[C@H]1C(=O)N[C@@H](CO)C(=O)N[C@@H](CO)C(N)=O)C(C)C` [Comparative Example 12, [Gly8]-GLP-1(7-35)-RPSS-NH2, reference compound], the fraction remaining at 8 h, 0.5 μmol/L in series [1] (rat plasma, 0.5 μmol/L, 37° C., 8 hours, relative to 0 hour = 100%, read-out: Remaining rate in plasma after 8 hours (%)) was 34%. Further, in series [1] (rat plasma, 0.5 μmol/L, 37° C., 48 hours, relative to 0 hour = 100%, read-out: Remaining rate in plasma after 48 hours (%)), the share remaining at 48 h, 0.5 μmol/L is 0%. Further, in series [1] (rat plasma, 0.5 μmol/L, 37° C., 48 hours, relative to 0 hour = 100%), the “Remaining rate in plasma after 48 hours (%)” value is reported as 0%.

As to “GLP-1(7-36)-NH2 [Comparative Example 1, reference compound]”, the “Insulin secretion capacity (% of control)” value in series [2] is 100%. Regarding “HSEGTFTSDVSSYLEEEAAKEFIAWLVKGGPSSGAPPPS-NH2 [Comparative Example 13, reference compound]”, in series [1] (rat, plasma), the fraction remaining at 8 h, 0.5 μmol/L amounted to 57% and the amount remaining at 48 h, 0.5 μmol/L came to 12%. In series [1] (rat, plasma), “HSEGTFTSDVSSYLEGQAAKEFIAWLVKGAKTVEGVKAL-NH2 [Comparative Example 8, [Ser8]-GLP-1(7-35)-GAm(28-37)-NH2, reference compound]” registered a fraction remaining at 8 h, 0.5 μmol/L of 27% and a fraction remaining at 48 h, 0.5 μmol/L of 0%. In series [1] (rat, plasma), “HSEGTFTSDVSSYLEGQAAKEFIAWLVKGAKTVEGVKALIDE-NH2 [Comparative Example 7, [Ser8]-GLP-1(7-35)-GAm(28-40)-NH2, reference compound]” yielded a share remaining at 8 h, 0.5 μmol/L of 81% and a share remaining at 48 h, 0.5 μmol/L of 4%. In series [1] (rat, plasma), “HSEGTFTSDVSSYLEGQAAKEFIAWLVKGKNLINNAKTVEGVKALIDEILAALP-NH2 [Example 17, [Ser8]-GLP-1(7-35)-GAm(22-46)-NH2]” returned a share remaining at 8 h, 0.5 μmol/L of 80% and an amount remaining at 48 h, 0.5 μmol/L of 93%. As to “[Ser8]-GLP-1(7-35)-GAm(28-44)-NH2 [Example 14]”, the “Insulin secretion capacity (% of control)” value in series [2] is recorded as 105%. Moreover, in series [2] (MIN 6 cells, 30, 100, 300 or 1000 pM (FIG. 2, FIG. 3)), the “Insulin secretion capacity (activity) compared with native GLP-1, in words” value is “almost the same activity as that of the native GLP-1”. As for “[Ser8]-GLP-1(7-35)-GAm(32-44)-NH2 [Example 10]”, in series [2], the “Insulin secretion capacity (% of control)” value was 109%. Same read-out and setting: the figure for “[Ser8]-GLP-1(7-35)-GAm(38-42)-NH2 [Example 1]” is 125%; for “[Ser8]-GLP-1(7-35)-GAm(38-44)-NH2 [Example 2]” it is 120%.
